{
  "source": "patent US5468499A",
  "about": "“Liposomes containing the salt of phosphoramide mustard and related compounds” (Ohio State University, priority 1993, dated 1995)",
  "origin": "cited, not measured here",
  "system": "tumor",
  "data": [
    {"smiles": "O=P1(N(CCCl)CCCl)NCCCO1", "note": "(stereo not shown) [cyclophosphamide]", "values": [
      {"measurement": "tumoricidal activity of the drug itself", "result": "not directly tumoricidal"}
    ]}
  ]
}
